Measurements published in publication PMC12692861, “Biotin-Linked Ursolic Acid Conjugates as Selective Anticancer Agents and Target-Identification Tools for Cancer Therapy” (Molecules, 2025).
Read-outs that look alike come from different tables or passages of the source.

Legend:
MCF-12A = experiment: MTT assay, non-tumorigenic breast epithelial cell line; assay type: cell-based, human; details: for IC50: Homo sapiens, MCF-12A, MTT, 72 h, non-tumorigenic cells, read-out: IC50 (Mean ± SD), MCF-12A
Protocol: The synthesized hybrid conjugates 5a–d were evaluated for their antiproliferative activity against the established human bladder cancer cell lines T24 and 5637. Test compounds were dissolved in ultrapure dimethyl sulfoxide (DMSO), diluted in cell culture media, added to cells cultured in 96-well cluster wells, and incubated for 72 h. The concentration of DMSO in culture media was maintained at < 0.05%. As previously reported, the fraction of viable cells in the culture wells was compared to that in cultures with 0.05% DMSO-only using a colorimetric assay, the Methyl Tetrazolium Bromide (MTT) reduction assay. We determined the selectivity index (SI) of the compounds 5a–d against tumor cells by comparing their cytotoxicity to that of a non-tumorigenic breast epithelial cell line, MCF-12A, as well as a non-tumorigenic, immortalized urothelial cell line, UROtsa (Table 1, and Figure 2).
(§1) The antiproliferative activities of various compounds examined in this report were measured using the MTT (3-[4,5-dimethylthiazol-2-yl]-2,5-diphenyl-tetrazolium bromide) reduction assay, as previously described. Briefly, cells were seeded at 2 × 10^3 cells per well in a 96-well plate and cultured overnight. The cells were then treated with different doses (5 µM, 10 µM, 15 µM, 20 µM, 25 µM, 30 µM, 35 µM, 40 µM in DMSO) for 72 h. Viability of the treated cultures was estimated by conversion of MTT to the insoluble formazan after 3h incubation at 37 °C and 5% CO2. The purple-colored formazan crystals were dissolved in DMSO, and absorbance was recorded at wavelengths 570/640 nm using the Bio-Rad Benchmark Plus Microplate Reader. The percent of viable cells was calculated ODtreated cells/ODcontrol cell wells × 100.

MB49 = experiment: MTT antiproliferative assay; assay type: cell-based, murine; details: for SI (selectivity index), MB49: IC50 UROtsa / IC50 MB49; for IC50: Mus musculus, MB49, MTT, 72 h, read-out: IC50 ± SD, MB49
Protocol: The IC50 values indicate that 5c is effective across multiple bladder cancer cell lines (Figure 2 and Table 2).
as §1

MB49 cells = experiment: ROS estimation with H2DCFDA; assay type: cell-based, murine; details: MB49, 24 h; for ROS levels: 5–40 µM
Protocol: (§2) Since 5c was not toxic to non-tumorigenic cells, such as MCF12A and UROtsa, these cells were excluded from experiments aimed at identifying the broad mechanism of cytotoxicity. A common mechanism by which these antioxidants induce cytotoxicity in tumor cells is by generating Reactive Oxygen Species (ROS) selectively in fast-growing tumor cells. The levels of ROS generated by 5c exposed cells were evaluated with the oxidation of 2′,7′-dichlorodihydrofluorescein diacetate (H2DCFDA). It is a cell-permeant fluorescent probe used for detecting ROS production (Thermo Scientific Inc., Waltham, MA, USA). […] Figure 3 illustrates the quantification of intracellular ROS levels in four bladder cancer cell lines, 5637, T24, HT-1376, and MB49, following treatment with UA and its biotin-conjugated derivative, compound 5c.
(§3) The relative levels of intracellular ROS produced in untreated and drug-treated cells were analyzed by fluorimetry using the fluorescent probe H2DCFDA (Sigma-Aldrich, #D6883, St. Louis, MI, USA), as described previously. Briefly, cells cultured in a 96-well plate at 1 × 10^4 cells per well were treated with drugs of interest for 24 h rinsed with sterile PBS to remove excess drugs, and incubated with 10 μM DCFDA for 30 min at 37 °C and 5% CO2. Following three rinses with PBS, the fluorescence intensity was recorded at excitation: 485/20, emission: 528/20 using a BioTek Synergy HTX Multimode fluorescence plate reader (Agilent Technologies, Inc., Santa Clara, CA, USA), and the data were represented as percentage change compared to the respective untreated control.
(§4) Figure 3 Estimation of oxidative stress: Treatment with UA or 5c increased ROS levels in various bladder cancer cells. ROS levels were estimated at 24 h using DCFDA. The relative fluorescence unit (RFU) was normalized to that observed in untreated cells and expressed as a percent increase. Data are Means ± SD, (n = 4). Relative significance, expressed as p-value are calculated based on one-way ANOVA.

5637 cells [1] = experiment: Annexin V-FITC/PI apoptosis flow cytometry; assay type: cell-based; details: Homo sapiens, 24 h, read-out: Q3-3 (Q3, viable) cells
Protocol: The potential of cells treated with UA or 5c to undergo dose-dependent apoptosis was explored using quantitative flow cytometric analysis, as shown in Figure 4. Utilizing a kit that detects quantitative binding of Annexin V to externalized phosphatidyl serine during the apoptosis cascade and permeability of Propidium iodide (PI) in cells undergoing cell death, we determined the cells at various stages of cell death following 24h incubation with UA and 5c in various bladder cancer cells.
We used a fluorescence-based Annexin V binding assay to determine the fraction of the cell population undergoing early and late apoptosis due to the cytotoxicity of the drugs. Cells plated in a 60 mm dish overnight at 0.3 × 10^6 cells/well were incubated with the selected drug at several doses for 24 h. Subsequently, treated cells were labeled with FITC-Annexin V using a kit (eBioscience™ Annexin V Apoptosis Detection Kits; Invitrogen # 88-8005-72, Thermo Fisher Scientific, Seoul, Korea) as per the manufacturer’s instructions. Intact cell suspension labeled with FITC-Annexin V and PI was run on the NovoCyte Quanteon flow cytometer, and data were acquired in list mode. Acquired data were analyzed using NovoExpress software (version 1.6.1). Cells treated with Staurosporine (0.2 µM) act as a positive control.

5637 cells [2] = experiment: ROS estimation with H2DCFDA; assay type: cell-based, human; details: 5637, 24 h, especially at concentrations above 20 µM
Protocol: as §2, §3, §4

HT1376 cells = experiment: ROS estimation with H2DCFDA; assay type: cell-based, human; details: HT1376, 24 h, especially at concentrations above 20 µM
Protocol: as §2, §3, §4

## C[C@H]1[C@H](C)CC[C@]2(C(=O)O)CC[C@]3(C)C(=CC[C@@H]4[C@@]5(C)CC[C@H](O)C(C)(C)[C@@H]5CC[C@]43C)[C@H]12 [UA, Ursolic acid]
MCF-12A
  IC50: 56.4 ± 7.6 µM
MB49
  SI (selectivity index), MB49: 6.26
  IC50: 10.7 ± 0.36 µM
MB49 cells
  ROS levels: concentration-dependent increase in ROS levels
5637 cells [1]
  viability at 10 µM: 69.5%
  viability at 15 µM: 64.6%

## CC1CCC2(C(=O)OCCCCOC(=O)CCCCC3SCC4NC(=O)NC43)CCC3(C)C(=CCC4C5(C)CCC(O)C(C)(C)C5CCC43C)C2C1C [Compound 5c, 4-((5-((3aS,4S,6aR)-2-Oxohexahydro-1H-thieno [3,4-d]imidazol-4-yl)pentanoyl)oxy) butyl 3-hydroxy-urs-12-en-28-oate]
MCF-12A
  IC50: 83.11 ± 0.3 µM
MCF-12A; MCF12A
  toxicity to non-tumorigenic cells: not toxic
MB49
  SI (selectivity index), MB49: 4.63
  IC50: 13.6 ± 0.18 µM
5637 cells [2]
  ROS levels: higher levels of ROS than UA
HT1376 cells
  ROS levels: higher levels of ROS than UA
MB49 cells
  ROS levels: concentration-dependent increase in ROS levels
MB49 cells; 30–40 µM
  ROS response relative to UA: more robust ROS response
5637 cells [1]; 5637, 10 µM
  viability at 10 µM: 33%
5637 cells [1]; 5637, 15 µM
  viability at 15 µM: 27.9%
